Consider 14 sequences from patent US11795460B2, “Compositions and methods for TTR gene editing and treating ATTR amyloidosis” (Intellia Therapeutics, Inc., priority 2017, dated 2023).

The test system of data set [1] is TTR. Nature of the data set: TTR editing in HEK293_Cas9 cells transfected with dgRNAs (Table 4). The conditions noted are these: HEK293_Cas9 cells (constitutively express Spy Cas9) transfected with dgRNAs. Format: cell-based, human. In short, it runs like this:
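Percent editing, taken from amplicon NGS as the fraction of all reads carrying insertions, deletions or substitutions, was measured 24, 48 or 72 h after delivery. Delivery used RNAiMAX lipoplexes of 25 nM each crRNA and trRNA into HEK293 cells stably expressing Spy Cas9.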

For data set [2], the system named is TTR. Nature of the data set: TTR editing in HUH7 cells transfected with Spy Cas9 mRNA and dgRNAs (Table 5). The settings on record: HUH7 cells co-transfected with Spy Cas9 mRNA (SEQ ID NO:2) and dgRNAs. The data set is classed as cell-based, human. The gist of the method:
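Percent editing is the share of NGS reads at the TTR target carrying insertions, deletions or substitutions, from amplicon sequencing of genomic DNA harvested at 24, 48 or 72 h. HUH7 cells first received Cas9 mRNA (100 ng) by lipofection, then dual-guide RNA (crRNA and tracer, 25 nM each).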

The subject of data set [3] is TTR. Put plainly: TTR editing in primary human hepatocytes electroporated with Spy Cas9 protein loaded with dgRNAs (Table 7). The data set is classed as cell-based. The settings on record: dgRNA electroporated with Spy Cas9 protein (RNP). The gist of the method: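 Editing efficiency is the fraction of NGS reads carrying insertions, deletions or substitutions at the TTR target, measured on MiSeq amplicons from DNA harvested 24, 48 or 72 h post-delivery. Cas9–dgRNA ribonucleoprotein was nucleofected (P3 buffer, EX-147) into primary human or cyno hepatocytes.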

Data set [4] deals with TTR. Nature of the data set: TTR editing in primary human hepatocytes transfected with Spy Cas9 mRNA and dgRNAs (Table 9). Format: cell-based. The settings on record: dgRNA co-transfected with Spy Cas9 mRNA (SEQ ID NO:2). In short, it runs like this: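 PHH sequentially lipofected with Spy Cas9 mRNA (100 ng), then crRNA plus tracrRNA (25 nM each) dual-guide lipoplex. Cells harvested 24, 48 or 72 h post-transfection; TTR target amplicons sequenced on Illumina MiSeq, editing given as percent reads with indels or substitutions over total reads.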

As to “GCUGCAUGGGCUCACAACUG (tested as dual guide RNA, chemistry not given here) [CR003361]”, the “Avg % Deletion” value is given as 25.78% in the data set on TTR [1], 22.44% in the data set on TTR [2], 0.37% with TTR [3] and 0.87% in the data set on TTR [4]. The “Avg % Edit” value came out at 34.45% with TTR [1], 28.68% in the data set with TTR [2], 4.10% with TTR [3] and 3.53% in the data set on TTR [4]. The “Avg % Insert” value in the data set with TTR [1] was determined as 8.66%; with TTR [2] it was 6.84%; in the data set with TTR [3], 3.73%; in the data set with TTR [4] it was 2.73%.
Turning to “UUCUUUGGCAACUUACCCAG (tested as dual guide RNA, chemistry not given here) [CR003357]”, the “Avg % Deletion” value came out at 37.85% in the data set on TTR [1], 30.82% with TTR [2], 0.77% with TTR [3] and 0.63% with TTR [4]. For the same sequence, the “Avg % Edit” value in the data set with TTR [1] is listed as 43.23%; in the data set on TTR [2], 36.31%; with TTR [3] it was 36.23%; in the data set on TTR [4], 25.93%. The “Avg % Insert” value with TTR [1] is 5.38%; with TTR [2], 6.37%; in the data set on TTR [3], 35.47%; with TTR [4], 25.30%.
Turning to “GGGAUUGGUGACGACAGCCG (tested as dual guide RNA, chemistry not given here) [CR003390]”, the “Avg % Deletion” value in the data set with TTR [1] came to 23.71%; in the data set on TTR [2] it was 16.49%; in the data set on TTR [3] it was 0.23%; in the data set on TTR [4] it was 1.60%. Also, the “Avg % Edit” value in the data set on TTR [1] came out at 28.02%; in the data set with TTR [2], 18.97%; with TTR [3], 15.97%; with TTR [4], 20.23%. Further, the “Avg % Insert” value in the data set on TTR [1] amounted to 4.31%; in the data set with TTR [2], 3.31%; with TTR [3], 15.80%; in the data set on TTR [4] it was 18.73%.
With “GGCUGUCGUCACCAAUCCCA (tested as dual guide RNA, chemistry not given here) [CR003391]”, the “Avg % Deletion” value worked out at 44.19% in the data set with TTR [1], 59.70% in the data set with TTR [2], 0.27% with TTR [3] and 0.30% in the data set on TTR [4]. Besides, the “Avg % Edit” value in the data set with TTR [1] is listed as 44.81%; in the data set with TTR [2] it was 61.31%; with TTR [3] it was 29.77%; with TTR [4] it was 15.47%. In addition, the “Avg % Insert” value in the data set on TTR [1] is given as 0.61%; in the data set with TTR [2], 2.10%; with TTR [3], 29.57%; in the data set on TTR [4], 15.20%.
In the case of “AUACCAGUCCAGCAAGGCAG (tested as dual guide RNA, chemistry not given here) [CR003338]”, the “Avg % Deletion” value with TTR [1] turned out to be 47.66%; in the data set with TTR [2], 67.06%; in the data set with TTR [3], 2.13%; in the data set with TTR [4], 2.73%. Besides, the “Avg % Edit” value is reported as 52.42% in the data set with TTR [1], 75.64% in the data set with TTR [2], 83.03% in the data set on TTR [3] and 36.30% in the data set with TTR [4]. Besides, the “Avg % Insert” value in the data set on TTR [1] is 4.76%; in the data set on TTR [2] it was 10.22%; in the data set with TTR [3], 80.87%; in the data set on TTR [4], 33.73%.
On to “AAGUGCCUUCCAGUAAGAUU (tested as dual guide RNA, chemistry not given here) [CR003368]”, for which the “Avg % Deletion” value with TTR [1] turned out to be 36.61%; with TTR [2], 29.69%; in the data set with TTR [3] it was 0.80%; with TTR [4], 0.60%. In addition, the “Avg % Edit” value with TTR [1] worked out at 40.35%; in the data set on TTR [2] it was 31.57%; with TTR [3] it was 28.47%; with TTR [4] it was 11.10%. For the same sequence, the “Avg % Insert” value with TTR [1] worked out at 3.73%; in the data set with TTR [2], 3.08%; in the data set on TTR [3], 27.63%; in the data set with TTR [4], 10.53%.
For the sequence “AGUGAGUCUGGAGAGCUGCA (tested as dual guide RNA, chemistry not given here) [CR003359]”, the “Avg % Deletion” value is on record as 19.40% with TTR [1], 45.97% in the data set with TTR [2], 7.50% with TTR [3] and 7.33% in the data set on TTR [4]. The “Avg % Edit” value in the data set with TTR [1] is on record as 37.75%; in the data set on TTR [2] it was 66.75%; with TTR [3], 63.77%; with TTR [4], 32.93%. Also, the “Avg % Insert” value with TTR [1] is listed as 18.35%; in the data set on TTR [2], 21.73%; with TTR [3], 56.33%; in the data set with TTR [4], 25.67%.
As to “UUUGACCAUCAGAGGACACU (tested as dual guide RNA, chemistry not given here) [CR003344]”, the “Avg % Deletion” value stood at 29.54% in the data set on TTR [1], 54.40% in the data set on TTR [2], 6.10% with TTR [3] and 9.20% in the data set with TTR [4]. Further, the “Avg % Edit” value with TTR [1] amounted to 33.87%; with TTR [2] it was 64.02%; in the data set with TTR [3] it was 39.40%; with TTR [4], 31.50%. Also, the “Avg % Insert” value with TTR [1] came out at 4.32%; in the data set on TTR [2] it was 10.76%; in the data set with TTR [3], 33.30%; in the data set on TTR [4], 22.40%.
With “GCAGGGCGGCAAUGGUGUAG (tested as dual guide RNA, chemistry not given here) [CR003380]”, the “Avg % Deletion” value in the data set on TTR [1] came out at 44.00%; in the data set with TTR [2], 29.29%; in the data set with TTR [3], 0.10%; in the data set with TTR [4], 0.47%. Besides, the “Avg % Edit” value with TTR [1] is 47.64%; in the data set with TTR [2], 31.76%; with TTR [3] it was 5.37%; with TTR [4], 2.93%. For the same sequence, the “Avg % Insert” value in the data set with TTR [1] was determined as 3.64%; with TTR [2] it was 3.29%; in the data set on TTR [3], 5.27%; with TTR [4], 2.47%.
In the case of “GUCACAGAAACACUCACCGU (tested as dual guide RNA, chemistry not given here) [CR005301]”, in the data set on TTR [3], the “Avg % Deletion” value was 1.60%, the “Avg % Edit” value turned out to be 25.37% and the “Avg % Insert” value came to 24.00%. Moreover, in the data set with TTR [4], the “Avg % Deletion” value turned out to be 1.40%, the “Avg % Edit” value came out at 6.77% and the “Avg % Insert” value is reported as 5.47%.
With “ACUGAGGAGGAAUUUGUAGA (tested as dual guide RNA, chemistry not given here) [CR003363]”, the “Avg % Deletion” value came out at 16.26% in the data set with TTR [1], 23.78% with TTR [2], 1.63% with TTR [3] and 4.93% in the data set on TTR [4]. In addition, the “Avg % Edit” value with TTR [1] was found to be 31.03%; in the data set with TTR [2], 41.01%; in the data set with TTR [3], 9.43%; with TTR [4], 16.70%. The “Avg % Insert” value was found to be 14.77% with TTR [1], 17.83% in the data set with TTR [2], 7.80% in the data set with TTR [3] and 11.80% in the data set with TTR [4].
In the case of “CCCCUACUCCUAUUCCACCA (tested as dual guide RNA, chemistry not given here) [CR003385]”, the “Avg % Deletion” value is 18.82% in the data set on TTR [1], 2.53% with TTR [3] and 3.60% with TTR [4]. The “Avg % Edit” value came out at 26.19% in the data set on TTR [1], 40.87% with TTR [3] and 36.77% in the data set on TTR [4]. Moreover, the “Avg % Insert” value in the data set with TTR [1] is recorded as 7.36%; in the data set with TTR [3] it was 38.43%; in the data set on TTR [4] it was 33.23%.
For “UGAAUCCAAGUGUCCUCUGA (tested as dual guide RNA, chemistry not given here) [CR005303]”, in the data set with TTR [3], the “Avg % Deletion” value is recorded as 0.53%, the “Avg % Edit” value stood at 53.57% and the “Avg % Insert” value is reported as 53.07%. Also, in the data set on TTR [4], the “Avg % Deletion” value amounted to 0.50%, the “Avg % Edit” value amounted to 35.50% and the “Avg % Insert” value worked out at 35.00%.
For the sequence “ACGUGUCUUCUCUACACCCA (tested as dual guide RNA, chemistry not given here) [CR005302]”, in the data set on TTR [3], the “Avg % Deletion” value was 1.00%, the “Avg % Edit” value was 61.10% and the “Avg % Insert” value was 60.10%. Moreover, in the data set on TTR [4], the “Avg % Deletion” value worked out at 1.13%, the “Avg % Edit” value is listed as 34.80% and the “Avg % Insert” value came out at 33.67%.
